Experimental data reported in article PMC7749613 (Journal of Cachexia, Sarcopenia and Muscle, 2020).
“And” between values parts separate entries of the source, which are not always exact repeats. Equal values may be shown once.

What was measured:
[1] = Transepithelial transport in MDCKII mock cells; assay type: in vitro ADME; conditions: dog, MDCK
Experimental: (§1) Cells were then washed three times, each with 0.5 mL pre‐warmed HBSS buffer. […] The cells were then incubated for various times up to 60 min. […] At the designated times, 15 μL of apical buffer and 50 μL of basolateral buffer were sampled. Once all the samples were collected, 0.5 mL of ice‐cold HBSS buffer was added to the well to stop transport after which the cells were rinsed three times with 0.5 mL of ice‐cold HBSS. The filters with monolayers were then detached from the chamber and placed in a scintillation vial, and the cells were lysed with 0.33 mL hyamine hydroxide.
(§2) The permeability of digoxin and rosuvastatin (prototypical substrates for MDR1 and BCRP, respectively) was determined by the following ^18 : (4) Papp=CR·VR/CD^o·A·∆Δt, where Papp is the apparent permeability, CR is the concentration of substrate in the receiver chamber, CD^o is the concentration of substrate in the donor chamber at time zero, VR is the volume of buffer in the receiver chamber, A is the surface area of the insert filter membrane, and ∆t is the time over which permeability is measured.

human P‐gp (ABCB1, MDR1) = target: T1, human P‐gp (ABCB1, MDR1) (Homo sapiens, UniProt P08183); test: Transepithelial transport of digoxin (±TCMCB07) in MDCKII/MDR1 cells; assay type: in vitro ADME; conditions: MDCKII/MDR1, digoxin alone
T1 construct: host or cells: MDCKII
T1 sequence (P08183 whole entry): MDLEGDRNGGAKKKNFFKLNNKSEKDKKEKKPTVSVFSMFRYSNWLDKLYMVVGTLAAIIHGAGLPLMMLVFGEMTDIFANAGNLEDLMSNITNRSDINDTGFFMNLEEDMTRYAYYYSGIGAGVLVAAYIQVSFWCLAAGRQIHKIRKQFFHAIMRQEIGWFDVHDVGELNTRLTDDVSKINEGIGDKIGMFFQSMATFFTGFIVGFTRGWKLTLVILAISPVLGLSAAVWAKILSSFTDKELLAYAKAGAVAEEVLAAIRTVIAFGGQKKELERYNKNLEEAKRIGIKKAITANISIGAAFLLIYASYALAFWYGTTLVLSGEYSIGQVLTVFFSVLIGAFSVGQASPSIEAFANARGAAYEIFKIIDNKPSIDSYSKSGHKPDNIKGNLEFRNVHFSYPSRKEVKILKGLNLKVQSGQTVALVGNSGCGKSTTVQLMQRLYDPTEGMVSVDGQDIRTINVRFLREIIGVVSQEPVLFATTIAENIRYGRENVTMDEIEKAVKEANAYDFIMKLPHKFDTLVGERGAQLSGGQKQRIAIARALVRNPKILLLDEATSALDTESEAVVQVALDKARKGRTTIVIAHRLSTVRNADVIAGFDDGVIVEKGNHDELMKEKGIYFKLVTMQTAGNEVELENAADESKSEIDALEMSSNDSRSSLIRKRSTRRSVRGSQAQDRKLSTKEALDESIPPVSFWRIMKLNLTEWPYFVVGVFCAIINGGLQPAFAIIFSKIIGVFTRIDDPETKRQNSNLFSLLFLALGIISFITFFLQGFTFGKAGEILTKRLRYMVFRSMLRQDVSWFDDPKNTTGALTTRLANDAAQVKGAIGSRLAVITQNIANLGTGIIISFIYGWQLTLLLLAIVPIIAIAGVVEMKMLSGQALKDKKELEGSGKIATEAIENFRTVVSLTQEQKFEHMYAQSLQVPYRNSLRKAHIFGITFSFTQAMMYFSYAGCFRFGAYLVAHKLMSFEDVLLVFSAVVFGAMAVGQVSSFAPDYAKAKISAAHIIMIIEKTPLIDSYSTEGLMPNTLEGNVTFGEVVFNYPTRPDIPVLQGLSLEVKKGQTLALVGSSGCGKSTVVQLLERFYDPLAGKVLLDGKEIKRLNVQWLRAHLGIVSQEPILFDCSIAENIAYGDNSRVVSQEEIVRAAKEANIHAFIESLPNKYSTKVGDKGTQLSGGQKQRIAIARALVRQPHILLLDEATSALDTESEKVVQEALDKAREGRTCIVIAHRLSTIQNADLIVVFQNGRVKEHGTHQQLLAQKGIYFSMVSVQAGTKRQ
Experimental: as §1, §2

OCT2 = target: T2, OCT2 (Homo sapiens, UniProt O15244); test: Cellular uptake in HEK293/OCT2‐transfected versus mock cells; assay type: in vitro ADME; conditions: OCT2, at 5.0 min
T2 construct: host or cells: HEK293
T2 sequence (O15244 1-555): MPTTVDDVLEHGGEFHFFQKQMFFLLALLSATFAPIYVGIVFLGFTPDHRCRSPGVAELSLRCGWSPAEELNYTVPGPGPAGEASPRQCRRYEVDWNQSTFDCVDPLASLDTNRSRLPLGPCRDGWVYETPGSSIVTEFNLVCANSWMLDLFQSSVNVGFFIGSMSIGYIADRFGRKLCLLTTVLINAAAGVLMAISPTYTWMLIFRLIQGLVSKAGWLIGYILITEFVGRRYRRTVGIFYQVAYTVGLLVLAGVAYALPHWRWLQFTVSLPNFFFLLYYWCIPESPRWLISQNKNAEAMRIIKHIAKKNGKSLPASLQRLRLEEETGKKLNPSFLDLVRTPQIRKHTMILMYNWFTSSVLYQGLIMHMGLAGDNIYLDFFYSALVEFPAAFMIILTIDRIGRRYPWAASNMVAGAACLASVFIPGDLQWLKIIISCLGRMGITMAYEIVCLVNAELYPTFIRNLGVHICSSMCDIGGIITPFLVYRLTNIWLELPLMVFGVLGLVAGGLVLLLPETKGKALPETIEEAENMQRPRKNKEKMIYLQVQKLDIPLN
Experimental: (§4) Cells were then washed three times × 1.0 mL each with pre‐warmed Hank's Balanced Salt Solution (HBSS) buffer. A 0.5 mL aliquot of uptake buffer [HBSS plus 10 mM 4‐(2‐hydroxyethyl)‐1‐piperazineethanesulfonic acid (HEPES), pH 7.4], containing the radiolabelled prototypical substrate and mannitol, was then incubated for various times up to 60 min to determine the optimal incubation time for subsequent experiments (i.e. time of sampling during linear uptake conditions). At the designated times, 1.0 mL of ice‐cold HBSS buffer was added to stop uptake after which the cells were rinsed three times with 1.0 mL with ice‐cold HBSS. Hyamine hydroxide (0.33 mL) was then added to each well to lyse the cells. The cells were transferred into a scintillation vial and mixed with 6.0 mL of cytosine scintillation cocktail. Radioactivity of the solubilized cells was determined with a dual‐channel liquid scintillation counter (Beckman LS 6000; Beckman Coulter Inc., Fullerton, CA) and the protein quantified by a bicinchoninic acid protein assay kit (Pierce Biotechnology; Rockford, IL).

MATE2‐K = MATE2‐K (Homo sapiens, UniProt Q86VL8); test: Cellular uptake in HEK293/MATE2‐K‐transfected versus mock cells; assay type: in vitro ADME; set-up: host or cells: HEK293; conditions: at 2.0 min
Sequence of MATE2‐K (Q86VL8 1-566 isoform Q86VL8-3): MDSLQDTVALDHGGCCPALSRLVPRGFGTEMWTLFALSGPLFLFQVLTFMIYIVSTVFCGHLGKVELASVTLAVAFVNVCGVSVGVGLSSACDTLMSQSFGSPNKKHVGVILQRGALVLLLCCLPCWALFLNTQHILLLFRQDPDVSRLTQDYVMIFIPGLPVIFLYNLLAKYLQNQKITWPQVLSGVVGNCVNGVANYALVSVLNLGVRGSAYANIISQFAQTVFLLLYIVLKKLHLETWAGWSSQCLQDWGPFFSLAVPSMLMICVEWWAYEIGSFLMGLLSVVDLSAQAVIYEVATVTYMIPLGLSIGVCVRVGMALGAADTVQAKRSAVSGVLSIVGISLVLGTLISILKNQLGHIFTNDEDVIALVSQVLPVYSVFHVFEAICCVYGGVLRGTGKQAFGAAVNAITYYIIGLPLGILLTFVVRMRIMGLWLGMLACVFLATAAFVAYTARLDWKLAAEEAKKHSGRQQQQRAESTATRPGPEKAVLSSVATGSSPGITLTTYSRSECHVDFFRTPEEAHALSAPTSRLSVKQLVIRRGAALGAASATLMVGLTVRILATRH
Experimental: (§3) However, for these studies, a different incubation buffer was used (145 mM NaCl, 3 mM KCl, 1 mM CaCl2, 0.5 mM MgCl2, 5 mM glucose, and 5 mM HEPES, pH 7.4). ^13 Moreover, intracellular acidification was achieved by preincubating the cells in buffer containing 30 mM ammonium chloride for 20 min at 37°C. […] Radioactivity and protein measurements were performed as described previously.

MATE1 = target: T3, MATE1 (Homo sapiens, UniProt Q96FL8); test: Cellular uptake in HEK293/MATE1‐transfected versus mock cells; assay type: in vitro ADME; set-up: host or cells: HEK293; conditions: MATE1, at 2.0 min
T3 sequence (Q96FL8 1-570): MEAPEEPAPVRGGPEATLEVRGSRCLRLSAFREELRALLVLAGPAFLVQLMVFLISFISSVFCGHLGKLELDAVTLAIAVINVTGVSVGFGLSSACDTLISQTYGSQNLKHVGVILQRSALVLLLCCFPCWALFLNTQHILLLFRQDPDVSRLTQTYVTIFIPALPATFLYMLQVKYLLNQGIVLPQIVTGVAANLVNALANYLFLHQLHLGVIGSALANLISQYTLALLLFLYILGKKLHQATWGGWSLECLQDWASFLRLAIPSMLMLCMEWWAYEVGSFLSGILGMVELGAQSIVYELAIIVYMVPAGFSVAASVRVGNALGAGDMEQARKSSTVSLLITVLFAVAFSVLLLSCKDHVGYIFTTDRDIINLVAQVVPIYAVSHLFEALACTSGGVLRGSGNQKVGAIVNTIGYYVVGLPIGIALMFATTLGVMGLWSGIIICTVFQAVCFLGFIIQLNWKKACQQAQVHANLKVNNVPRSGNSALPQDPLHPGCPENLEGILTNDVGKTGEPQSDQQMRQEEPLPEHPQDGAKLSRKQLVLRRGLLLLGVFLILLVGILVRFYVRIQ
Experimental: as §3

[2] = In vivo mass balance study (urinary and faecal recovery) in mice
Experimental: Each mouse was then placed in a metabolic cage for 24 h, along with food and water, and the urine and faeces were collected. The metabolic cage was washed several times, after which 100 μL aliquots of diluted urine and faeces was placed in separate vials. Radioactivity measurements were then performed as described previously. All animal procedures were approved by the Institutional Animal Care and Use Committee at the University of Michigan, Ann Arbor.

OAT3 = target: T4, OAT3 (Homo sapiens, UniProt Q8TCC7); test: Cellular uptake in HEK293/OAT3‐transfected versus mock cells; assay type: in vitro ADME; conditions: OAT3, at 5.0 min
T4 construct: host or cells: HEK293
T4 sequence (Q8TCC7 1-542): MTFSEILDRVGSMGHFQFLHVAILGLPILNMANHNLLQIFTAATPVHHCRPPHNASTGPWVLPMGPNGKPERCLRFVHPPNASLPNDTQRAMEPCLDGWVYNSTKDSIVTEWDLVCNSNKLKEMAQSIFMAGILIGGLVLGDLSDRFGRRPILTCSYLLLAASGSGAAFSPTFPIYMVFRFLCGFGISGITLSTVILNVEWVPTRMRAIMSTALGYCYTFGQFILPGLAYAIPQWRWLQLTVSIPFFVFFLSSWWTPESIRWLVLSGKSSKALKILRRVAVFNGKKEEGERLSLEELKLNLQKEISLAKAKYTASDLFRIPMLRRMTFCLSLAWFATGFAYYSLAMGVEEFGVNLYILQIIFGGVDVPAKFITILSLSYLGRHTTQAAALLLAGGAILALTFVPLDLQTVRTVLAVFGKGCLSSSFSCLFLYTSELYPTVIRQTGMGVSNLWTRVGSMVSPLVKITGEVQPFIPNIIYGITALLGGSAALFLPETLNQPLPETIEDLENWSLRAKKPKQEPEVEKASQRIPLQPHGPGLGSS
Experimental: as §4

OATP2B1 = target: T5, OATP2B1 (Homo sapiens, UniProt O94956); test: Cellular uptake in HEK293/OATP2B1‐transfected versus mock cells; assay type: in vitro ADME; conditions: OATP2B1, at 1.5 min
T5 construct: host or cells: HEK293
T5 sequence (O94956 1-709): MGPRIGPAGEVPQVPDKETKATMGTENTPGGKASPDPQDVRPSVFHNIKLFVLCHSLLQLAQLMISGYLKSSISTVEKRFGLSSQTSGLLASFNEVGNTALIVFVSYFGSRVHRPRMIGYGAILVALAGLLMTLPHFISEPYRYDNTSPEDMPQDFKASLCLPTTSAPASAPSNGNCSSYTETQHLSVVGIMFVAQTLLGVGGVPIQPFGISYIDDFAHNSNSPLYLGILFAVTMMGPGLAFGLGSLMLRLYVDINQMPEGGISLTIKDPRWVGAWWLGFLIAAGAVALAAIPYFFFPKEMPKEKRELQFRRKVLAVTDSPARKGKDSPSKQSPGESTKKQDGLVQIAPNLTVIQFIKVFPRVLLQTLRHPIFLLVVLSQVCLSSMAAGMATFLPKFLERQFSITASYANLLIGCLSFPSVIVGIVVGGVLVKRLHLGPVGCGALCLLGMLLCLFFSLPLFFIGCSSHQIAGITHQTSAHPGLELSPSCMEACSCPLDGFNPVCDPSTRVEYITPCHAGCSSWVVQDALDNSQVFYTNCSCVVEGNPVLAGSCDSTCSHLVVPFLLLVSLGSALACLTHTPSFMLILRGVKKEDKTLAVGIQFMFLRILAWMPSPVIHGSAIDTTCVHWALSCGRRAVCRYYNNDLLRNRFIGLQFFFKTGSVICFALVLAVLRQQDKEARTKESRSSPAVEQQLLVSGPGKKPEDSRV
Experimental: as §4

BCRP (ABCG2) = target: T6, BCRP (ABCG2) (Homo sapiens, UniProt Q9UNQ0); test: Transepithelial transport of rosuvastatin (±TCMCB07) in MDCKII/BCRP cells; assay type: in vitro ADME; conditions: human, pH 7.4, MDCKII/BCRP, rosuvastatin alone
T6 construct: host or cells: MDCKII
T6 sequence (Q9UNQ0 1-655): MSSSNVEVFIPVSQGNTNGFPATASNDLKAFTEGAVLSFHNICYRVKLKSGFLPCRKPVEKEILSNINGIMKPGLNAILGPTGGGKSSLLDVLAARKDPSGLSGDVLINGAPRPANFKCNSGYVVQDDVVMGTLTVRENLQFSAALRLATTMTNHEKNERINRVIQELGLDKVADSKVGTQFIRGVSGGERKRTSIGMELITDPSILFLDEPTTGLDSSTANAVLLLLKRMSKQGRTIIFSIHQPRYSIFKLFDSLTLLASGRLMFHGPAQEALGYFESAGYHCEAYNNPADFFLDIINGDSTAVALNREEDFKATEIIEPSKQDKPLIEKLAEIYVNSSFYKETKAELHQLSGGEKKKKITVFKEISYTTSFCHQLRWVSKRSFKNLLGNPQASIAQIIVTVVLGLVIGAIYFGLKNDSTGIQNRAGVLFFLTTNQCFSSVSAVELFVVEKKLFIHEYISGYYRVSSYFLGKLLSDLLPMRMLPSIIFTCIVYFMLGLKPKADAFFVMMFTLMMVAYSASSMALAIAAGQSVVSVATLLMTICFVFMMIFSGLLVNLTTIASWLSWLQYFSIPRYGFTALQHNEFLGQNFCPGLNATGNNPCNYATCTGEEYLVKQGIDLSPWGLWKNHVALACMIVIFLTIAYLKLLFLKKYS
Experimental: as §1, §2
A similar analysis can be performed for rosuvastatin by substituting ERRos for ERDig and ERRos+T for ERDig+T in Eqn 6.

[3] = table values multiplied ×10^6, cm/s

C[C@H]1O[C@@H](O[C@H]2[C@@H](O)C[C@H](O[C@H]3[C@@H](O)C[C@H](O[C@H]4CC[C@@]5(C)[C@H](CC[C@@H]6[C@@H]5C[C@@H](O)[C@]5(C)[C@@H](C7=CC(=O)OC7)CC[C@]65O)C4)O[C@@H]3C)O[C@@H]2C)C[C@H](O)[C@@H]1O [Digoxin, digoxin]
efflux ratio at 38 nM ([1]; pH 7.4, read-out: mean efflux ratio of digoxin): 4.5
Papp A→B at 38 nM ([1]; pH 7.4, read-out: mean permeability of digoxin (A to B)): 6.3 ×10⁻⁶ cm/s
Papp B→A at 38 nM ([1]; pH 7.4, read-out: mean permeability of digoxin (B to A)): 20.8 ×10⁻⁶ cm/s
Efflux ratio of digoxin, Papp B to A/Papp A to B (human P‐gp (ABCB1, MDR1)): 24.2 ± 7.3
Papp (A to B) of digoxin (human P‐gp (ABCB1, MDR1); [3]): 1.1 ± 0.3 ×10^−6 cm/s
Papp (B to A) of digoxin (human P‐gp (ABCB1, MDR1); [3]): 22.4 ± 4.0 ×10^−6 cm/s

C[n+]1ccc(-c2ccccc2)cc1 [1‐methyl‐4‐phenylpyridinium]
mean enhancement of uptake (transfected/mock) (OCT2): 373

CC[N+](CC)(CC)CC [tetraethylammonium]
mean enhancement of uptake (transfected/mock) (MATE2‐K): 46.7
mean enhancement of uptake (transfected/mock) (MATE1): 122

inulin
% Urinary recovery, intravenous inulin ([2]; individual mice, [3H]inulin iv bolus given with intravenous TCMCB07, 24 h collection): 104% and 93.2% and 95.1%
% Urinary recovery, intravenous inulin ([2]; individual mice, [3H]inulin iv bolus given with oral TCMCB07, 24 h collection (mouse 2: 48 h)): 106% and 100% and 107%
% Urinary recovery, intravenous inulin ([2]; mean of 3 mice, given with intravenous TCMCB07): 97.4%
% Urinary recovery, intravenous inulin ([2]; mean of 4 mice, given with oral TCMCB07): 105%

C[C@]12CC[C@@H]3c4ccc(OS(=O)(=O)O)cc4CC[C@H]3[C@@H]1CCC2=O [estrone 3‐sulfate]
mean enhancement of uptake (transfected/mock) (OAT3): 470
mean enhancement of uptake (transfected/mock) (OATP2B1): 63.5

CC(C)c1nc(N(C)S(C)(=O)=O)nc(-c2ccc(F)cc2)c1/C=C/[C@@H](O)C[C@@H](O)CC(=O)O [Rosuvastatin, rosuvastatin]
efflux ratio at 21 nM (BCRP (ABCG2); read-out: Efflux ratio of rosuvastatin, Papp B to A/Papp A to B): 7 ± 0.3
Papp A→B at 21 nM (BCRP (ABCG2); [3]): 11 ± 0.1 ×10⁻⁶ cm/s
Papp B→A at 21 nM (BCRP (ABCG2); [3]): 76.8 ± 4.1 ×10⁻⁶ cm/s
efflux ratio at 21 nM ([1]; pH 7.4, read-out: mean efflux ratio of rosuvastatin): 3.1
Papp A→B at 21 nM ([1]; pH 7.4, read-out: mean permeability of rosuvastatin (A to B)): 18 ×10⁻⁶ cm/s
Papp B→A at 21 nM ([1]; pH 7.4, read-out: mean permeability of rosuvastatin (B to A)): 55 ×10⁻⁶ cm/s
